From patent US5250538A, “Indole derivatives and their use” (Novo Nordisk A/S, priority 1990, dated 1993)
pIC50: −log10 of the molar value. Counter-ions that a name gives are not always drawn.

Legend:
5-HT1A = molecular target: T1, 5-HT1A (Rattus norvegicus, UniProt P19327); experiment: 5-HT1A receptor binding in vitro (3H-8-OH-DPAT, rat frontal cortex/hippocampus); settings: rat brain, ligand 3H-8-OH-DPAT 2 nM, 10 min 37° C.
T1 construct: from tissue
T1 sequence (P19327 1-422): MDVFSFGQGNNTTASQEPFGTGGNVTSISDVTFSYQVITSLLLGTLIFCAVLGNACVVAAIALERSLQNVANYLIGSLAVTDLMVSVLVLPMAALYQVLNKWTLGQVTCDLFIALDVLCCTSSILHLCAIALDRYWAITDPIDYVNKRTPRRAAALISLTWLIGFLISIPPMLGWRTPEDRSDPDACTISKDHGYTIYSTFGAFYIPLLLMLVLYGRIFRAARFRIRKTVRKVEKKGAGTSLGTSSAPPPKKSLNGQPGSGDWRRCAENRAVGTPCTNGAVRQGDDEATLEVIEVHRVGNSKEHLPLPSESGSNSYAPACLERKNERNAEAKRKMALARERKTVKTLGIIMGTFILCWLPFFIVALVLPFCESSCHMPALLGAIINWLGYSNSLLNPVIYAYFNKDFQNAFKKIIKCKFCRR
Method: (§1) Compounds of the general formula (I) were tested for binding to 5-HT receptors and compared with known ligands by the following procedure:
(§2) Rat brain tissue (as specified in the table hereinafter) was homogenized using a Polytron homogenizer. The final pellet was resuspended in 125 vol (tissue wet weight) of buffer.
(§3) In all assays incubation was carried out for 10 min at 37° C.
(§4) Detailed conditions for the receptor binding assay in vitro are tabulated below.

5-HT1B = molecular target: T2, 5-HT1B (Rattus norvegicus, UniProt P28564); experiment: 5-HT1B receptor binding in vitro (3H-5-HT, 50 nM 8-OH-DPAT included)
T2 construct: from tissue
T2 sequence (P28564 whole entry): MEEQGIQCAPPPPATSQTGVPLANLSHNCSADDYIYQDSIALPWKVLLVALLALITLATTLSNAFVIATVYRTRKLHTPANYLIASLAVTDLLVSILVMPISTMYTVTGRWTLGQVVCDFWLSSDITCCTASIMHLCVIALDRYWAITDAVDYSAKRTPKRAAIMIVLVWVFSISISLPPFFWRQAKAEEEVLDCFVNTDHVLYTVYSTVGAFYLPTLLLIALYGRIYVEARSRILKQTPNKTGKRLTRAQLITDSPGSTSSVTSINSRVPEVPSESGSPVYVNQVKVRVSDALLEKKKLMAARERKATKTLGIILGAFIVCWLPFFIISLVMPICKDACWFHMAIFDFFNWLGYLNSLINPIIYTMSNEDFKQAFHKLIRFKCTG
Method: as §1, §2, §3
Labelling of the 5-HT1B receptor was complicated by the fact that the available ligand ^3 H-5-HT is nonselective.
as §4

5-HT1A receptors = settings: background, in words; cited from earlier work
5-HT1 recognition sites = settings: background, Ann.Reports Med.Chem. 21 (1986), 42-43; cited from earlier work
5-HT2 receptor subtype = settings: background, in words; cited from earlier work

SMILES	pIC50 (5-HT1A)	pIC50 (5-HT1B)	further results
O=C1C2C3C=CC(C4C=CC43)C2C(=O)N1CCCCNCCc1c[nH]c2ccccc12 (stereo not drawn) [Example 1, 1-(4-(1,3-Dioxo-4,7-etheno-1,3,3a,4,4a,6a,7,7a-octahydro-2 H-cyclobut[f]isoindol-2-yl)butyl-1-amino)-2-(3-indolyl)-ethane, oxalate]	7.59	6.32	–
O=C1c2ccccc2C(=O)N1CCCCNCCc1c[nH]c2ccccc12 [Example 2, 1-(4-Phthalimidobutyl-1-amino)-2-(3-indolyl)-ethane, oxalate]	6.43	6.83	–
COc1ccc2[nH]cc(CCNCCCCN3C(=O)CC4(CCCC4)CC3=O)c2c1 [Example 4, 1-(4-(7,9-Dioxo-8-azaspiro[4,5]decan-8-yl)butyl-1-amino)-2-(5-methoxy-3-indolyl)-ethane, oxalate]	8.40	< 6.00	–
COc1ccc2[nH]cc(CCNCCCCN3C(=O)C4C5C=CC(C6C=CC65)C4C3=O)c2c1 (stereo not drawn) [Example 5, 1-(4-(1,3-Dioxo-4,7-etheno-1,3,3a,4,4a,6a,7,7a-octa-hydro-2 H-cyclobut(f]isoindol-2-yl)butyl-1-amino)-2(5-methoxy-3-indolyl)-ethand, oxalate]	8.60	< 6.00	–
CCCN(CCC)C1CCc2cccc(O)c2C1 (stereo not drawn) [Example 8-OH-DPAT, 8-hydroxy-2-(di-n-propylamino)tetralin]	–	–	binds with high affinity to 5-HT1A receptors (5-HT1A receptors): high affinity
O=C1c2ccccc2S(=O)(=O)N1CCCCN1CCN(c2ncccn2)CC1 [Ipsapirone, reference compound]	–	< 6.00	–
COc1ccc2[nH]cc(C3=CCNCC3)c2c1 [RU 24969]	–	–	affinity for 5-HT1 recognition sites (5-HT1 recognition sites): high affinity
O=C(c1ccc(F)cc1)C1CCN(CCn2c(=O)[nH]c3ccccc3c2=O)CC1 [ketanserin]	–	–	high affinity for the 5-HT2 receptor subtype (5-HT2 receptor subtype): high affinity
